Data as given in article PMC10744269, “Frentizole, a Nontoxic Immunosuppressive Drug, and Its Analogs Display Antitumor Activity via Tubulin Inhibition” (International Journal of Molecular Sciences, 2023).

Tests used:
[1] = test system: U87 MG (human glioblastoma); experiment: MTT antiproliferative assay, U-87 MG; assay type: cell-based; details: 72 h after drug treatment, threshold 10 μM
Method: (§1) The cell proliferation inhibitory activity of frentizole and the synthesized analogs 2–10 against representative human cancer cell lines was assayed using the MTT method (Table 1). […] For those compounds inhibiting cell proliferation by more than 40% with respect to the untreated controls at the threshold concentration, the IC50 values were calculated by measuring the proliferation inhibition in a range of concentrations from 100 to 0.001 μM and adjusting the resulting curves to sigmoidal dose–response curves. The selected cell lines were HeLa (cervix epithelioid carcinoma cells), one of the most frequent kinds of cancer, with good sensitivity against antimitotic agents, and the glioblastoma cell lines U87MG and A172. To study the selectivity of the compounds toward cancer cells versus nontumor cells, the compounds were also evaluated against the nontumorigenic cell line HEK-293 (human embryonic kidney cells) and the murine macrophage cell line J774. Sulfonamide ABT-751, as a representative of the colchicine-site ligands, and the first-line drug for the treatment of glioblastoma multiforme temozolomide (TMZ) were used as reference compounds.
(§2) The cell lines were from ATTC (Manassas, VA, USA). HeLa (human cervix epithelioid carcinoma), U87 MG (human glioblastoma), A172 (human glioblastoma), and HEK-293 (human embryonic kidney) were grown in Dulbecco’s modified Eagle’s medium (DMEM, Gibco, Waltham, MA, USA), supplemented with 10% (v/v) heat-inactivated fetal bovine serum (HIFBS, Sigma-Aldrich, St. Louis, MO, USA), 2 mM L-glutamine, 100 μg/mL streptomycin, and 100 units/mL penicillin (Gibco, Waltham, MA, USA) at 37 °C in humidified 95% air and 5% CO2. The cells were periodically tested for Mycoplasma infection using MycoAlert kit (Lonza, Norwest, Australia), and only mycoplasma-free cells were employed in the experiments.
(§3) The effect of the compounds on the proliferation of human tumor cell lines was determined as previously described using the MTT reagent 3-[4,5-dimethylthiazol-2-yl]-2,5-diphenyltetrazolium bromide, MTT Thiazolyl Blue Tetrazolium Bromide, Sigma-Aldrich, St. Louis, MO, USA) dissolved in PBS at 5 mg/mL, according to the manufacturer’s instructions. The cells were incubated in 96-well plates (100 μL/well), in complete DMEM or RPMI 1640 medium (see above), at 37 °C and 5% CO2 atmosphere for 24 h to allow for cell attachment to the plate at the following concentrations: 30,000 cells/mL (U87MG, A172, J774, and HEK-293 cells) or 15,000 cells/mL (HeLa cells). Then, every compound was added (10 μL/well) to a final concentration of 10 μM. Untreated cells were used as negative controls. The antiproliferative activity of the compounds was measured 72 h after drug exposure using the MTT assay. The IC50 value (the drug concentration required to inhibit 50% of the cell growth in respect the untreated control) was determined for those compounds showing antiproliferative effects in the initial screening at 10 μM. For this purpose, the compounds were used at different concentrations ranging from 10^−10 to […]. Measurements were performed in triplicate and each experiment was repeated three times. The IC50 values were determined using Origin software (OriginLab, Washington, DC, USA).

[2] = test system: nontumorigenic cell line HEK-293 (human embryonic kidney cells); experiment: MTT antiproliferative assay, HEK-293; assay type: cell-based; details: HEK293, 72 h after drug treatment, threshold 10 μM
Method: as §1, §2, §3

[3] = test system: HeLa (cervix epithelioid carcinoma cells); experiment: MTT antiproliferative assay, HeLa; assay type: cell-based, human; details: Homo sapiens, HeLa, 72 h after drug treatment, threshold 10 μM
Method: as §1, §2, §3

[4] = test system: A172 (human glioblastoma); experiment: MTT antiproliferative assay, A-172; assay type: cell-based; details: 72 h after drug treatment, threshold 10 μM
Method: as §1, §2, §3

[5] = test system: murine macrophage cell line J774; experiment: MTT antiproliferative assay, J774; assay type: cell-based; details: Mus musculus, 72 h after drug treatment, threshold 10 μM, read-out: IC50 J-774
Method: as §1, §3

Cc1cc(Br)c2nc(NC(=O)NCc3ccccc3)sc2c1 [Compound 7b, 1-Benzyl-3-(4-bromo-6-methylbenzo[d]thiazol-2-yl)urea]
IC50 [1]: > 10 µM | IC50 [2]: > 10 µM | IC50 [3]: > 10 µM | IC50 [4]: > 10 µM | IC50 [5]: > 10 µM

COc1ccc2nc(NC(=O)c3ccccc3)sc2c1 [Compound 3e, N-(6-methoxybenzo[d]thiazol-2-yl)benzamide]
IC50 [1]: > 10 µM | IC50 [2]: > 10 µM | IC50 [3]: > 10 µM | IC50 [4]: > 10 µM | IC50 [5]: > 10 µM

Cc1ccc2nc(NC(=O)Nc3ccccc3)sc2c1 [Compound 6a, 1-(6-Methylbenzo[d]thiazol-2-yl)-3-phenylurea]
melting point: 327 to 329 °C | IC50 [1]: > 10 µM | IC50 [2]: > 10 µM | IC50 [3]: > 10 µM | IC50 [4]: > 10 µM | IC50 [5]: 1.97 µM

COc1ccc2nc(N(C)C(=O)Nc3ccccc3)sc2c1 [Compound 6ea, 1-(6-Methoxybenzo[d]thiazol-2-yl)-1-methyl-3-phenylurea]
melting point: 189 °C | IC50 [1]: > 10 µM | IC50 [2]: > 10 µM | IC50 [3]: > 10 µM | IC50 [4]: > 10 µM | IC50 [5]: > 10 µM

Cc1ccc2nc(NC(=O)Cc3ccccc3)sc2c1 [Compound 4a, N-(6-methylbenzo[d]thiazol-2-yl)-2-phenylacetamide]
melting point: 190 to 191 °C | IC50 [1]: > 10 µM | IC50 [2]: > 10 µM | IC50 [3]: > 10 µM | IC50 [4]: > 10 µM | IC50 [5]: > 10 µM

CCNC(=O)Nc1nc2cc(C)c(C)cc2s1 [Compound 5c, 1-(5,6-Dimethylbenzo[d]thiazol-2-yl)-3-ethylurea]
IC50 [1]: > 10 µM | IC50 [2]: > 10 µM | IC50 [3]: > 10 µM | IC50 [4]: > 10 µM | IC50 [5]: > 10 µM

Cc1ccc2nc(NC(=O)NCc3ccccc3)sc2c1 [Compound 7a, 1-Benzyl-3-(6-methylbenzo[d]thiazol-2-yl)urea]
melting point: 283.4 to 285.7 °C | IC50 [1]: > 10 µM | IC50 [2]: > 10 µM | IC50 [3]: > 10 µM | IC50 [4]: > 10 µM | IC50 [5]: > 10 µM

CCOC(=O)Nc1nc2c(Br)cc(C)cc2s1 [Compound 8b, Ethyl (4-bromo-6-methylbenzo[d]thiazol-2-yl)carbamate]
melting point: 177 to 178 °C | IC50 [1]: > 10 µM | IC50 [2]: > 10 µM | IC50 [3]: > 10 µM | IC50 [4]: > 10 µM | IC50 [5]: > 10 µM

Cc1cc(Br)c2c(c1)SC(NC(=O)Oc1ccccc1)N2C(=O)Oc1ccccc1 (stereo not drawn) [Compound 9b, Phenyl (4-bromo-6-methyl-N-phenoxycarbonylbenzo[d]thiazol-2-yl)carbamate]
melting point: 100 °C

Cc1cc(Br)c2nc(NC(=O)OCc3ccccc3)sc2c1 [Compound 10b]
IC50 [1]: > 10 µM | IC50 [2]: > 10 µM | IC50 [3]: > 10 µM | IC50 [4]: > 10 µM | IC50 [5]: > 10 µM

Cc1ccc2nc(NC(=O)OCc3ccccc3)sc2c1 [Compound 10a, Benzyl (6-methylbenzo[d]thiazol-2-yl)carbamate]
melting point: 254 to 255 °C | IC50 [1]: > 10 µM | IC50 [2]: > 10 µM | IC50 [3]: > 10 µM | IC50 [4]: > 10 µM

Cc1cc(Br)c2nc(NC(=O)Nc3ccccc3)sc2c1 [Compound 6b]
IC50 [1]: > 10 µM | IC50 [2]: > 10 µM | IC50 [3]: > 10 µM | IC50 [4]: > 10 µM | IC50 [5]: > 10 µM

CCNC(=O)Nc1nc2ccc(OC)cc2s1 [Compound 5e, 1-Ethyl-3-(6-methoxybenzo[d]thiazol-2-yl)urea]
IC50 [1]: > 10 µM | IC50 [2]: > 10 µM | IC50 [3]: > 10 µM | IC50 [4]: > 10 µM | IC50 [5]: > 10 µM

Cc1ccc2nc(NC(=O)c3ccccc3)sc2c1 [Compound 3a, N-(6-methylbenzo[d]thiazol-2-yl)benzamide]
melting point: 222 to 224 °C | IC50 [1]: > 10 µM | IC50 [2]: > 10 µM | IC50 [3]: > 10 µM | IC50 [4]: > 10 µM | IC50 [5]: > 10 µM

Cc1cc2nc(N(C)C(=O)Nc3ccccc3)sc2cc1C [Compound 6ca, 1-(5,6-Dimethylbenzo[d]thiazol-2-yl)-1-methyl-3-phenylurea]
melting point: 179 °C | IC50 [1]: > 10 µM | IC50 [2]: > 10 µM | IC50 [3]: > 10 µM | IC50 [4]: > 10 µM | IC50 [5]: > 10 µM

CCOC(=O)Nc1nc2ccc(C)cc2s1 [Compound 8a, Ethyl (6-methylbenzo[d]thiazol-2-yl)carbamate]
melting point: 252.8 to 254 °C | IC50 [1]: > 10 µM | IC50 [2]: > 10 µM | IC50 [3]: > 10 µM | IC50 [4]: > 10 µM | IC50 [5]: 0.26 µM

Cc1cc2nc(NC(=O)c3ccccc3)sc2cc1C [Compound 3c, N-(5,6-dimethylbenzo[d]thiazol-2-yl)benzamide]
melting point: 210 °C | IC50 [1]: > 10 µM | IC50 [2]: 5.68 µM | IC50 [3]: > 10 µM | IC50 [4]: > 10 µM | IC50 [5]: 7.73 µM

Cc1cc2nc(N(C)C(=O)c3ccccc3)sc2cc1C [Compound 3ca, N-(5,6-dimethylbenzo[d]thiazol-2-yl)-N-methylbenzamide]
melting point: 231 °C | IC50 [1]: > 10 µM | IC50 [2]: > 10 µM | IC50 [3]: > 10 µM | IC50 [4]: > 10 µM | IC50 [5]: > 10 µM

Cc1cc2nc(NC(=O)Nc3ccccc3)sc2cc1C [Compound 6c, 1-(5,6-Dimethylbenzo[d]thiazol-2-yl)-3-phenylurea]
melting point: > 290 °C | IC50 [1]: > 10 µM | IC50 [2]: > 10 µM | IC50 [3]: > 10 µM | IC50 [4]: > 10 µM | IC50 [5]: 0.27 µM

CCNC(=O)Nc1nc2ccc(C)cc2s1 [Compound 5a, 1-Ethyl-3-(6-methylbenzo[d]thiazol-2-yl)urea]
melting point: 312 to 313 °C | IC50 [1]: > 10 µM | IC50 [2]: > 10 µM | IC50 [3]: > 10 µM | IC50 [4]: > 10 µM | IC50 [5]: > 10 µM

Cc1ccc2nc(NC(=O)Oc3ccccc3)sc2c1 [Compound 9a, Phenyl (6-methylbenzo[d]thiazol-2-yl)carbamate]
melting point: 251 to 253 °C | IC50 [1]: > 10 µM | IC50 [2]: > 10 µM | IC50 [3]: > 10 µM | IC50 [4]: > 10 µM | IC50 [5]: > 10 µM
